pIC50: −log10 of the molar value. Several values for one entry are separate records, joined by “and”; a condition that tells them apart may be missing. Equal values may be shown once. Read-outs that look alike come from different tables or passages of the source.
Assays:
E. rostratum conidia = test: conidia growth inhibition ATP content assay (RPMI, 1536-well); format: cell-based, Exserohilum rostratum
How it was run: (§1)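 Hyphal fragments (15,000/well in PBS, batch-normalized by carbohydrate OD490) or conidia (250/well in RPMI) were exposed to compound at 46 µM in the primary screen for 24 h at 30 °C. Viability was read as ATPLite luminescence after 15 min at RT and scaled between DMSO (100%) and 46 µM amphotericin B (0%).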

[1] = test system: E. rostratum hyphal fragments; test: hyphal fragment fungicidal ATP content assay (PBS, 1536-well); format: cell-based, Exserohilum rostratum; conditions: for pIC50 / Emax: Exserohilum rostratum
How it was run: as §1

E. rostratum [2] = test system: E. rostratum; set-up: method as in earlier work; conditions: filamentous fungi M38-A2, this isolate; cited from earlier work
[3] = test system: E. rostratum hyphal fragments; test: colony formation assay of hyphal fragments; format: cell-based, Exserohilum rostratum; conditions: 2 times respective IC50, 37°C, 24 h; p<0.01
Description: 10 µl of hyphal suspension (processed as described above) was transferred to 1.7 mL microfuge tubes, each containing 28 nM amphotericin B, 242 nM posaconazole, or 10% DMSO in 1 ml PBS. Tubes containing hyphae and drug were incubated at 37°C in a shaking incubator for 24 h, then 200 µl of the hyphae drug suspension was spread on Yeast Extract Peptone Dextrose (YPD) plates for 24 h at 30°C and the number of colony forming units were scored. The experiments were performed in triplicate.
Mixtures were cultured at 37°C in a shaking incubator for 24 h, then the hyphal suspensions were inoculated on Yeast Extract Peptone Dextrose (YPD) plates that were incubated for 1 day. The number of colonies on each YPD plate was counted.

SH-SY5Y cells = test: SH-SY5Y cytotoxicity counter-screen (ATP content assay); format: cell-based, Human; conditions: for SH-SY5Y % Max. Resp.: Table 2, SH-SY5Y, inact. = no significant activity at 46 µM; for SH-SY5Y % M. Res. / SH-SY5Y IC50: Table S1; for SH-SY5Y % M. Res.: Inact. = no significant activity at 46 µM; for SH-SY5Y IC50: Inact. = no significant activity at the highest compound concentration (46 µM); for cytotoxicity in SH-SY5Y mammalian cells: concentration up to 46 µM
How it was run: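 SH-SY5Y human neuroblastoma cells grown in DMEM/F-12 with 10% FBS at 37 °C, 5% CO2. Viability counter-screen measured cellular ATP by luciferase luminescence (ATPLite) in 1536-well format.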

[4] = set-up: method as in PMID 12445558; conditions: 8 hours after intravenous (iv) administration of 20 mg/kg; cited from earlier work
E. rostratum [5] = test: drug repurposing screen against E. rostratum; format: cell-based, Exserohilum rostratum; conditions: in our experiments
Text: The library of pharmacologically active compounds (LOPAC) consists of 1280 small molecules with characterized biological activities. The LOPAC library (Sigma-Aldrich) has been extensively used for HTS assay validations, [18]. The NIH Chemical Genomics Center Pharmaceutical (NPC) collection was constructed in-house through a combined effort of compound purchasing and custom synthesis and recently expanded to 4096 compounds. In this drug libarary, 52% of which are drugs approved for human or animal use by the United States Food and Drug Administration (FDA), 22% are drugs approved in Europe, Canada, or Japan, and the remaining 25% are compounds that have entered clinical trials or are research compounds commonly used in biomedical research. […] 2.5 µl/well PBS was dispensed into 1536-well plates using a Multidrop-Combi dispenser. Compound in DMSO solution was transferred in a volume of 23 nl/well using a NX-TR pintool station (WAKO Scientific Solutions, San Diego, CA). This additional PBS step for compound addition was designed to prevent the potential fungal contamination of compound libraries. The hyphal fragments in PBS were then added at 2.5 µl/well for a final seeding density of 15,000 hyphal fragments/well using the Multidrop-Combi dispenser. The final compound concentration was 46 µM in the primary screen. […]

[6] = Exserohilum rostratum, 24 h, Table 2, 24 h, inact. = no significant activity at the highest compound concentration (46 µM), read-out: Conidia IC50
[7] = Exserohilum rostratum, Table 2, 46 µM Amphotericin B = 100%, inact. = no significant activity at 46 µM, read-out: Conidia % Max. Resp.
[8] = Exserohilum rostratum, Table S1, 46 µM Amphotericin B = 100%, Inact. = no significant activity at 46 µM, read-out: Conidia % M. Res.
[9] = Table 2, 46 µM Amphotericin B = 100%, inact. = no significant activity in the primary screen, read-out: Hyphae % Max. Resp.
[10] = Table 2, 24 h, inact. = no significant activity in the primary screen, read-out: Hyphae IC50
[11] = Table S1, 46 µM Amphotericin B = 100%, Inact. = no significant activity in the primary screen, read-out: Hyphae % M. Res.
[12] = Exserohilum rostratum, Figure 5, read-out: IC50 Conidia
[13] = Figure 5, read-out: IC50 Hyphae

Molecule	pIC50 (E. rostratum conidia; [6])	Emax (E. rostratum conidia; [7]) [%]	Emax [1, 9] [%]	pIC50 [1, 10]	hyphae-derived colony forming units (CFU) compared to DMSO control [3]	SH-SY5Y % Max. Resp. (SH-SY5Y cells; 46 µM Amphotericin B = 100%)	SH-SY5Y % Max. Resp. (SH-SY5Y cells)	pIC50 (E. rostratum conidia; [12])	pIC50 [1, 13]	cytotoxicity in SH-SY5Y mammalian cells (SH-SY5Y cells)	further results
C[C@@H]1[C@H](O)[C@@H](C)/C=C/C=C/C=C/C=C/C=C/C=C/C=C/[C@H](O[C@@H]2O[C@H](C)[C@@H](O)[C@H](N)[C@@H]2O)C[C@@H]2O[C@](O)(C[C@@H](O)C[C@@H](O)[C@H](O)CC[C@@H](O)C[C@@H](O)CC(=O)O[C@H]1C)C[C@H](O)[C@H]2C(=O)O [Amphotericin B]	7.92	104	84	7.85	significantly reduced	inact.	inact.	–	–	–	pIC50 (E. rostratum conidia; 250 conidia/well, read-out: conidia IC50): 8.01; pIC50 (E. rostratum conidia; Exserohilum rostratum, Table S1, Inact. = no significant activity at the highest compound concentration (46 µM), read-out: Conidia IC50): 6.09; pIC50 (E. rostratum conidia; Exserohilum rostratum, 250 conidia/well, read-out: conidia IC50): 8.03; Emax (E. rostratum conidia; [8]): 104%; pIC50 ([1]; 15000 fragments/well, read-out: hyphae IC50): 7.91; Emax [1, 11]: 84%; value determined from the microdilution method (E. rostratum [2]): 60 nM; SH-SY5Y % M. Res. (SH-SY5Y cells; 46 µM Amphotericin B = 100%): Inact.; SH-SY5Y IC50 (SH-SY5Y cells): Inact.
O=c1[nH]c(=O)n([C@H]2C[C@H](O)[C@@H](CO)O2)cc1F [Floxuridine]	6.54	29	77	6.07	significantly reduced	inact.	inact.	–	–	–	brain concentrations [4]: above 600 nM
CCC(C)n1ncn(-c2ccc(N3CCN(c4ccc(OCC5COC(Cn6cncn6)(c6ccc(Cl)cc6Cl)O5)cc4)CC3)cc2)c1=O (centres unmarked) [Itraconazole]	5.91	100	80	5.66	significantly reduced	inact.	inact.	5.90	5.71	no significant cytotoxicity	–
N#C/C(=C1/SCC(c2ccccc2Cl)S1)n1ccnc1 (centres unmarked) [Lanoconazole]	6.42	103	65	6.69	significantly reduced	inact.	inact.	6.09	6.34	no significant cytotoxicity	–
N#C/C(=C1/SC[C@@H](c2ccc(Cl)cc2Cl)S1)n1ccnc1 [Luliconazole]	5.36	100	82	5.19	significantly reduced	inact.	inact.	–	–	–	Emax (E. rostratum conidia; [8]): 100%; Emax [1, 11]: 82%; SH-SY5Y % M. Res. (SH-SY5Y cells; 46 µM Amphotericin B = 100%): Inact.; SH-SY5Y IC50 (SH-SY5Y cells): Inact.
CC[C@@H]([C@H](C)O)n1ncn(-c2ccc(N3CCN(c4ccc(OC[C@@H]5CO[C@@](Cn6cncn6)(c6ccc(F)cc6F)C5)cc4)CC3)cc2)c1=O [Posaconazole]	7.01	106	78	6.92	significantly reduced	inact.	inact.	7.10	6.79	no significant cytotoxicity	value determined from the microdilution method (E. rostratum [2]): 0.25 µg/ml and 360 nM
C=CC[C@@H]1/C=C(\C)C[C@H](C)C[C@H](OC)[C@H]2O[C@@](O)(C(=O)C(=O)N3CCCC[C@H]3C(=O)O[C@H](/C(C)=C/[C@@H]3CC[C@@H](O)[C@H](OC)C3)[C@H](C)[C@@H](O)CC1=O)[C@H](C)C[C@@H]2OC [Tacrolimus]	7.62	101	83	7.49	significantly reduced	inact.	inact.	7.44	7.51	no significant cytotoxicity	–
C[C@@H](c1ncncc1F)[C@](O)(Cn1cncn1)c1ccc(F)cc1F [Voriconazole]	5.54	101	94	5.59	significantly reduced	inact.	inact.	5.43	5.55	no significant cytotoxicity	pIC50 (E. rostratum conidia; Exserohilum rostratum, read-out: conidia IC50): 5.54; pIC50 ([1]; read-out: hyphae IC50): 5.58; value determined from the microdilution method (E. rostratum [2]): 2 µg/ml and 5.7 µM
CCCSc1ccc2nc(NC(=O)OC)[nH]c2c1 [albendazole]	–	–	–	–	–	–	–	–	–	–	activity against E. rostratum (E. rostratum [5]): not active
Mepartricin	–	–	–	–	–	–	–	–	–	–	Conidia % M. Res. (E. rostratum conidia; Table S1, 46 µM Amphotericin B = 100%, Inact. = no significant activity at 46 µM): 80%; Hyphae % M. Res. ([1]; Table S1, 46 µM Amphotericin B = 100%, Inact. = no significant activity in the primary screen): Inact.; Hyphae IC50 ([1]; Table S1, Inact. = no significant activity in the primary screen): Inact.; pIC50 (SH-SY5Y cells): 4.43; SH-SY5Y % M. Res. (SH-SY5Y cells; 46 µM Amphotericin B = 100%): 38%
Phenylmercuric borate	–	–	–	–	–	99%	0.417%	–	–	–	Conidia % Max. Resp. (E. rostratum conidia; Table 2, 46 µM Amphotericin B = 100%, inact. = no significant activity at 46 µM): 103%; pIC50 (E. rostratum conidia; Table 2, 24 h, inact. = no significant activity at the highest compound concentration (46 µM), read-out: Conidia IC50): 6.83; Hyphae % Max. Resp. ([1]; Table 2, 46 µM Amphotericin B = 100%, inact. = no significant activity in the primary screen): inact.; Hyphae IC50 ([1]; Table 2, 24 h, inact. = no significant activity in the primary screen): inact.

— paper PMC3749181, “Rapid Identification of Antifungal Compounds against Exserohilum rostratum Using High Throughput Drug Repurposing Screens” (PLoS ONE, 2013)
